In US6969708B1, “Process for the preparation of a high purity composition comprising (7α, 17α)- 17-hydroxy- 7-methyl- 19-nor-17-pregn-5(10)-en-20-yn-3-one” (Akzo Nobel N.V., priority 1998, dated 2005):

Experiment: Stress test at 45° C. of bulk Tibolone crystals (increase of Org OM38)
Format: physicochemical
Description: A solution of (7α, 17α)-3,3-dimethoxy-17-hydroxy-7-methyl-19-norpregn-5(10)-en20-yn-3-one (15 kg) in a mixture of pyridine (630 ml) and ethanol (315 liters) was mixed with a solution of oxalic acid (750 gr) in water (90 liters) and the mixture was stirred for 2 hours at approximately 30° C. The solution was poured out in a mixture of pyridine (1350 ml) and water (300 liters) and the resulting suspension was filtered. The crystals were washed with a mixture of water and pyridine and dried under vacuum at 40° C. to give (7α, 17α)-17-hydroxy-7-methyl-19-norpregn-5(10)-en-20-yn-3-one containing 0.6% of the corresponding (7α, 17α)-17-hydroxy-7-methyl-19-norpregn-4-en-20-yn-3-one as indicated by HPLC analysis; a stress test at 45° C. (duration 1 month) indicated a 0.4% increase of the latter compound.
A solution of (7α, 17α)-3,3-dimethoxy-17-hydroxy-7-methyl-19-norpregn-5(10)-en-20-yn-3-one (15 kg) in a mixture of pyridine (630 ml) and ethanol (315 liters) was mixed with a solution of oxalic acid (375 gr) in water (90 liters) and the mixture was stirred for 3 hours at approximately 30° C. The solution was poured out in a mixture of pyridine (1350 ml) and water (300 liters) and the resulting suspension is filtered. The crystals are washed with a mixture of water and pyridine and allowed to age for 3–6 days at room temperature. Subsequently, the crystals were dried under vacuum at 40° C. to give (7α, 17α)-17-hydroxy-7-methyl-19-norpregn-5(10)-en-20-yn-3-one containing≦0.1% of the corresponding (7α, 17α)-17-hydroxy-7-methyl-19-norpregn-4-en-20-yn-3-one as indicated by HPLC analysis; a stress test at 45° C. (duration 1 week) indicated a<0.1% increase of the latter compound.
The preparation as described in example 2 was repeated. (7α, 17α)-17-hydroxy-7-methyl-19-norpregn-5(10)-en-20-yn-3-one was obtained which contained 0.2% of the corresponding. (7α, 17α)-17-hydroxy-7-methyl-19-norpregn-4-en-20-yn-3-one as indicated by HPLC analysis; a stress test at 45° C. (duration 1 week) indicated a 0.1% increase of the latter compound.

| Structure (SMILES) | increase of (7α, 17α)-17-hydroxy-7-methyl-19-norpregn-4-en-20-yn-3-one in stress test (duration 1 week) [%] | increase of (7α, 17α)-17-hydroxy-7-methyl-19-norpregn-4-en-20-yn-3-one in stress test (duration 1 month) [%] |
| --- | --- | --- |
| C#C[C@]1(O)CCC2C3C(CCC21C)C1=C(CC(=O)CC1)C[C@H]3C (single isomer, unassigned) [Example 2, (7α, 17α)-17-hydroxy-7-methyl-19-norpregn-5(10)-en-20-yn-3-one] | < 0.1 |  |
| C#C[C@]1(O)CCC2C3C(CCC21C)C1=C(CC(=O)CC1)C[C@H]3C (single isomer, unassigned) [Example 3, (7α, 17α)-17-hydroxy-7-methyl-19-norpregn-5(10)-en-20-yn-3-one] | 0.1 |  |
| C#C[C@]1(O)CCC2C3C(CCC21C)C1=C(CC(=O)CC1)C[C@H]3C (stereo partly drawn) [Example 1, (7α, 17α)-17-hydroxy-7-methyl-19-norpregn-5(10)-en-20-yn-3-one] |  | 0.4 |
